{
  "source": "patent US5736556A",
  "about": "“Tropane-2-aldoxime derivatives as nevro transmitter reuptake inhibitors” (NeuroSearch A/S, priority 1994, dated 1998)",
  "key": {"[1]": {"target": "T1, ^3 H-noradrenaline uptake (noradrenaline transporter) (Rattus norvegicus, UniProt Q63380)", "T1 construct": "Hippocampi from male Wistar rats (150-200 g) are homogenized; from tissue; host or cells: P2 synaptosomes of hippocampus, male Wistar rats", "T1 sequence (Q63380 1-617)": "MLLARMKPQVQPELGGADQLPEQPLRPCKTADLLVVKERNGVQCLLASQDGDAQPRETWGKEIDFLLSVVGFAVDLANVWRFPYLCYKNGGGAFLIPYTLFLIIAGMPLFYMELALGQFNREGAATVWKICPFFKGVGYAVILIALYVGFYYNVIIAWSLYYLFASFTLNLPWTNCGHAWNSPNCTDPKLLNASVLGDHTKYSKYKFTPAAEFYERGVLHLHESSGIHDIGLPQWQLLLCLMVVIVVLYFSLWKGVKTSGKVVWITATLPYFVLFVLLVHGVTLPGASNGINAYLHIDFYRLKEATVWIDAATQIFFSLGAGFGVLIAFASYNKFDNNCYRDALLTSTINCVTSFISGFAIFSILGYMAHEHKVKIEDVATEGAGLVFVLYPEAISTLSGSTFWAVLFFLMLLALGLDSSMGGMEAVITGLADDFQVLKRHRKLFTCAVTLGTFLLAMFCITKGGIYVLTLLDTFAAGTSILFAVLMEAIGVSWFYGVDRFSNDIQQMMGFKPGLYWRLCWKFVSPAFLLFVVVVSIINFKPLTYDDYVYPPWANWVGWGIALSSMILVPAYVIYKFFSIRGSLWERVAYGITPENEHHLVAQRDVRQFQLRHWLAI", "assay": "In vitro inhibition of ^3 H-noradrenaline (^3 H-NA) uptake in hippocampal synaptosomes", "type": "biochemical, rat (male Wistar)", "conditions": "^3 H-NA 1 nM, 90 min at 37° C.", "excerpt": "(§1) The compounds of the invention have also been tested for their ability to inhibit reuptake of dopamine(DA) noradrenalin(NA) and serotonin(5-HT) in synaptosomes.\n(§2) Specific neurotransmitter transporters/uptake sites on nerve terminals presumably function to terminate neuronal signaling by removing the neurotransmitters dopamine, noradrenaline and serotonin, respectively, from the synaptic cleft. The activity of the transporter integral proteins can be measured in vitro by synaptosomal uptake of ^3 H-dopamine, ^3 H-noradrenaline and ^3 H-serotonine, respectively.\nIn vitro inhibition of ^3 H-noradrenaline (^3 H-NA) uptake in hippocampal synaptosomes\nTissue preparation: Preparations are performed at 0°-4° C. unless otherwise indicated. Hippocampi from male Wistar rats (150-200 g) are homogenized for 5-10 sec in 100 volumes of ice-cold 0.32M sucrose containing 1 mM pargyline using an Ultra-Turrax homogenizer. Monoamine oxidase activity will be inhibited in the presence of pargyline. The homogenate is centrifuged at 1000×g for 10 min. The resulting supernatant is then centrifuged at 27,000×g for 50 min and the supernatant is discarded. The pellet (P2) is resuspended in oxygenated (equilibrated with an atmosphere of 96% O2 : 4% CO2 for at least 30 min) Krebs-Ringer incubation buffer (2000 ml per g of original tissue) at pH 7.2 containing 122 mM NaCl, 0.16 mM EDTA, 4.8 mM KCl, 12.7 mM Na2 HPO4, 3.0 mM NaH2 PO4, 1.2 mM MgSO4, 0.97 mM CaCl2, 10 mM glucose and 1 mM ascorbic acid.\n(§3) Assay: Aliquots of 4.0 ml tissue suspension are added to 100 μl of test solution and 100 μl of ^3 H-NA (1 nM, final concentration), mixed and incubated for 90 min at 37° C. Non-specific uptake is determined using desipramine (1 μM, final concentration). After incubation the samples are poured directly onto Whatman GF/C glass fibre filters under suction. […] The amount of radioactivity on the filters is determined by conventional liquid scintillation counting. Specific uptake is calculated as the difference between total uptake and non-specific uptake. […]"}, "[2]": {"target": "T2, ^3 H-5-HT (serotonin) uptake (serotonin transporter) (Rattus norvegicus, UniProt P31652)", "T2 construct": "Cerebral cortices from male Wistar rats (150-200 g) are homogenized; from tissue; host or cells: P2 synaptosomes of cerebral cortex, male Wistar rats", "T2 sequence (P31652 whole entry)": "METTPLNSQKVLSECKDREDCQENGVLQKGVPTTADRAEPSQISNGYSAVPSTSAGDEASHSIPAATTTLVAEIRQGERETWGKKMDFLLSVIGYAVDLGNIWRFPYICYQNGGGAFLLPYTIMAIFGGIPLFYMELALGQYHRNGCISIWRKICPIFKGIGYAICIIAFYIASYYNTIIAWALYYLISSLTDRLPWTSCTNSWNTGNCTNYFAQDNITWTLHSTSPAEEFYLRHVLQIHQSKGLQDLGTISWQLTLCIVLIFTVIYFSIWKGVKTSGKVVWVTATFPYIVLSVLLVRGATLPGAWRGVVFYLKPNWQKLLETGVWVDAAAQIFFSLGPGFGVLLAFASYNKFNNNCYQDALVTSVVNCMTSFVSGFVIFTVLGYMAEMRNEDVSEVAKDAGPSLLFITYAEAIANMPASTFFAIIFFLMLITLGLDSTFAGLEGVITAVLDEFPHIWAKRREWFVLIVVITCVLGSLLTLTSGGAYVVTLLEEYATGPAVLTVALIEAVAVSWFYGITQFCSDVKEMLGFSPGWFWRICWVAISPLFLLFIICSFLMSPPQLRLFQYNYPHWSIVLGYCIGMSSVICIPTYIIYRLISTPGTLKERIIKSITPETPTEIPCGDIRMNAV", "assay": "In vitro inhibition of ^3 H-5-hydroxytryptamine (^3 H-5-HT, serotonin) uptake in cortical synaptosomes", "type": "biochemical, rat (male Wistar)", "conditions": "^3 H-5-HT 1 nM, 30 min at 37° C.", "excerpt": "as §1, §2\nIn vitro inhibition of ^3 H-5-hydroxytryptamine ^3 H-5-HT, serotonin) uptake in cortical synaptosomes\nTissue preparation: Preparations are performed at 0°-4° C. unless otherwise indicated. Cerebral cortices from male Wistar rats (150-200 g) are homogenized for 5-10 sec in 100 volumes of ice-cold 0.32M sucrose containing 1 mM pargyline using an Ultra-Turrax homogenizer. […]\nas §3, with “H-5-HT” for “H-NA”, “30” for “90”, “citalopram” for “desipramine”, “concentration).” for “concentration). After incubation the samples are poured directly onto Whatman GF/C glass fibre filters under suction.”"}, "dopamine transporter": {"target": "dopamine transporter (Mus musculus, UniProt Q61327)", "sequence (Q61327 whole entry)": "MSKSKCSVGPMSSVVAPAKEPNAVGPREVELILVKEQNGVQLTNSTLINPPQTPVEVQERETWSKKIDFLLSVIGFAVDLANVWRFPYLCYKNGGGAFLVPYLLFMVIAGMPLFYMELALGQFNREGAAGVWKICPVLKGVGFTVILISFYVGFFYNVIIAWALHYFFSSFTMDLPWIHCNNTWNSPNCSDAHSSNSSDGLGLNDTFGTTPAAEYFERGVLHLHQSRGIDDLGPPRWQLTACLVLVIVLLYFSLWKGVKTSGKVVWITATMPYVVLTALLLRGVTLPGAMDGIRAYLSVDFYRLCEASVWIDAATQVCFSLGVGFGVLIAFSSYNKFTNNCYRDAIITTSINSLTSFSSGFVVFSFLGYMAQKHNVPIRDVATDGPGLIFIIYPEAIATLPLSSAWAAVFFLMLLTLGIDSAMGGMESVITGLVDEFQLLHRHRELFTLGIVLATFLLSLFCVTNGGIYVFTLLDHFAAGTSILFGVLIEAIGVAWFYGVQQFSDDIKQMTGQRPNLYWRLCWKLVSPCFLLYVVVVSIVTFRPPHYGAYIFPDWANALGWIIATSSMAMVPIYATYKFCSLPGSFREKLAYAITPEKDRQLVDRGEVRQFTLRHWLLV", "assay": "In vivo inhibition of ^3 H-WIN 35428 binding (striatum)", "set-up": "from tissue; host or cells: striatum of living female NMRI mice; species or system mice (female NMRI)", "conditions": "ip, mice, inhibition of specific ^3 H-WIN 35428 binding in striatum", "description": "All test substances used are solutions or suspensions prepared in 10% TWEEN 80. Groups of three female NMRI mice (25 g) are injected i.p. with the test substance. […] Tissues are weighed and dissolved for 36 h with 1 ml 2% sodium-laurylsulfat. The solubilized tissue is then added 2 ml of scintillation cocktail, and the amount of radioactivity per mg of tissue is counted by conventional liquid scintillation counting. Groups of untreated mice serves as controls.\nThe ED50 value is determined from dose response curves.\nED50 =(administered dose, mg/kg)×1/(C0 /Cx -1), where C0 is specific binding in controls and Cx is the specific binding in mice treated with test substance."}},
  "note": "pIC50: −log10 of the molar value. Counter-ions that a name gives are not always drawn.",
  "data": [
    {"smiles": "CON=C[C@@H]1[C@@H](c2ccc(Cl)c(Cl)c2)C[C@@H]2CC[C@H]1N2C", "note": "[(1R,2R,3S)-3-(3,4-dichlorophenyl)-tropane-2-O-methyl-aldoxime, H2 SO4]", "values": [
      {"measurement": "pIC50", "setting": "[1]", "value": 8.89},
      {"measurement": "pIC50", "setting": "[2]", "value": 7.89},
      {"measurement": "ED50", "setting": "dopamine transporter", "value": 0.9, "unit": "mg/kg"}
    ]},
    {"smiles": "CON=C[C@@H]1[C@@H](c2ccc(Cl)c(Cl)c2)C[C@@H]2CC[C@H]1N2", "note": "[(1R,2R,3S)-N-Normethyl-3-(3,4-dichlorophenyl)tropane-2-O-methyl-aldoxime, hydrochloride]", "values": [
      {"measurement": "pIC50", "setting": "[1]", "value": 8.89},
      {"measurement": "pIC50", "setting": "[2]", "value": 8.77},
      {"measurement": "ED50", "setting": "dopamine transporter", "value": 1.4, "unit": "mg/kg"}
    ]}
  ]
}
